Test results as given in patent US20110065675A1, “AZO DYE RELATED SMALL MOLECULE MODULATORS OF PROTEIN-PROTEIN INTERACTIONS” (University of Miami, priority 2008, published 2011).
Like-named read-outs stand apart in the source and are kept apart here.

How the values were obtained:
human TNF-R1/TNFα = human TNF-R1/TNFα (Homo sapiens, UniProt P01375+P19438); test: Specificity test: human TNF-R1/TNFα binding inhibition assay; conditions: for IC50: cell-free binding, read-out: Human TNFR1/TNFα IC50; for Human TNFR1/TNFα log IC50: log of IC50, cell-free binding
Sequence of human TNF-R1/TNFα (P01375 77-233 limits assumed): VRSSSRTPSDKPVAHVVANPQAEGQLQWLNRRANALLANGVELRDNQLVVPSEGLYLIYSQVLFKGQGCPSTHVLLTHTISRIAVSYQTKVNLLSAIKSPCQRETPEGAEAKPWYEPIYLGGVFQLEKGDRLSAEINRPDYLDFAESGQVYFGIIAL
Sequence of human TNF-R1/TNFα (P19438 30-211 limits assumed): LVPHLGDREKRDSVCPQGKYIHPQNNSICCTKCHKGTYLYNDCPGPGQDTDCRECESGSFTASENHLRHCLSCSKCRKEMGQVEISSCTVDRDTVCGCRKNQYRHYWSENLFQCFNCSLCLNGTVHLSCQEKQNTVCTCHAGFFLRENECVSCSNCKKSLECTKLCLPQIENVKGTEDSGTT
Excerpt: A main concern for the therapeutic applicability of these compounds and of small molecule PPI inhibitors in general is related to their ability to achieve some acceptable degree of selectivity/specificity for the PPI of interest. To identify compounds that show acceptable specificity for the CD40/CD154 system, their ability to inhibit the TNF-R1/TNF-α PPI was investigated since this is particularly relevant as CD154 is part of the TNF superfamily. The experimental setup used was very similar to the one described in Example 1, but using plate-coated TNF-R1 and TNF-α as ligand (with a corresponding anti-TNF-α mAb as positive control). The concentration of TNF-R1 and TNF-α used were 0.6 μg/mL and 0.02 μg/mL, respectively.

human CD40/CD154 = biological target: T1, human CD40/CD154 (Homo sapiens, UniProt P29965); test: Human CD40/CD154 binding inhibition assay (cell-free, plate-based)
T1 construct: CD154 (soluble human, FLAG-tagged, recombinant from Alexis Biochemicals; MW=18 kDa); purchased Alexis Biochemicals
T1 sequence (P29965 113-261 limits assumed): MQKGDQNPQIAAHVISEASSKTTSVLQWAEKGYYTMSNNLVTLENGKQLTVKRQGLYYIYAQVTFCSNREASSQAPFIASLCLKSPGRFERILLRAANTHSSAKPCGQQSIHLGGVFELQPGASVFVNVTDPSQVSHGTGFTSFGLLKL
Experimental: A 96-well plate-based cell-free in vitro binding inhibition assay, which is a modification of an assay described in U.S. Pat. No. 7,173,046, incorporated by reference in its entirety, has been developed and used for activity screening. Briefly, CD40 is coated at a preselected concentration, and binding of (FLAG-tagged) CD154 is measured by reacting with secondary antibody and using TMB liquid substrate system as a substrate for horseradish peroxidase for reading at 450 nm. The detailed procedure is as follows: Microtiter plates (Nunc F MaxiSorp) were coated with […] of CD40: Fc (human:Fc human, recombinant from Alexis Biochemicals; MW=54 kDa) diluted in PBS pH 7.2 at a preselected concentration of 0.3125 μg/mL. Plates were covered with plate sealer and stored overnight at 4° C. The liquid was removed from the plates and blotted dry. Plates were blocked by washing once with approx. 300 μL/well of Blocking Solution (PBS pH 7.2, 0.05% Tween-20, 1% BSA) and incubated with the same solution for 1 hour at room temperature (RT) or at 4° C. overnight. Coated plates were washed three times with Washing Solution (PBS pH 7.4, 0.05% Tween-20) and blotted dry. A preselected dilution of CD154 (soluble human, FLAG-tagged, recombinant from Alexis Biochemicals; MW=18 kDa) of 0.0087500875 μg/mL range was prepared in 100 mM HEPES, 0.005% BSA pH 7.2. Binding was carried out by adding 100 μL of this CD154 dilution/well and incubating at RT in the presence of test compounds (or blank as negative control). After incubation, the plates were washed with Washing Solution and blotted dry. Bound CD154 was detected with 200 μL/well of secondary antibody mAb ANTI-FLAG M2—Peroxidase Conjugate (anti-FLAG M2-peroxidase HRP conjugate; Sigma-Aldrich) diluted 1:40,000 in Washing Solution. After incubation, the plates were washed and blotted dry. 200 μL/well of the HR-Peroxidase substrate TMB (3,3′,5,5′-tetramethylbenzidine; Sigma-Aldrich) were added, and the plates were incubated for approximately 30 minutes in the dark. The reaction was stopped with 0.5 M H2SO4 and read at 450 nm. All conditions were tested in at least three independent experiments in duplicate or triplicate per plates. Data were normalized and fitted with standard log inhibitor vs. response models using GraphPad Prism 5 to establish median inhibitory ICso values.
A representative result using the monoclonal anti-human CD154 antibody (R&D Systems, monoclonal anti-human CD40 ligand/TNFSF5 antibody, MAB617; MW≈150 kDa used) as positive control is shown in FIG. 1.
Binding inhibition assays with this system provided consistent and well-reproducible results, as FIG. 1 (bottom), focusing on the concentration range of their activities, illustrates. […] The effect of DMSO, which was used as the diluting solvent for the non-water-soluble compounds and is a standard solvent in HTS assays, on the integrity of the assay has been examined. DMSO concentrations above 10% interfere with the binding assay, but concentrations below 3% have no effect. […] Because 5 or 10 mM stock solutions were used, all IC50 values below 250 μM can be considered as unaffected by DMSO.

[1] = biological target: T2, mouse CD40/CD154 (mCD40:mCD154) (Mus musculus, UniProt P27548); test: Murine CD40/CD154 binding inhibition assay
T2 construct: (FLAG-tagged) mCD154 (recombinant mouse CD40L, soluble, Alexis Biochemicals); purchased R&D Systems (mCD40/Fc); Alexis Biochemicals (mCD154)
T2 sequence (P27548 112-260 limits assumed): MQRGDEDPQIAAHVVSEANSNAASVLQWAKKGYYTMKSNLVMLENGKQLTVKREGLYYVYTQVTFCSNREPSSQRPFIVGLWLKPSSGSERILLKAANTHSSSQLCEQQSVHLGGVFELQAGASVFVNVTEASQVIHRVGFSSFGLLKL
Experimental: Compounds of interest were also tested in a murine (mouse) model similar to the human one with murine CD40 and CD154 replacing the corresponding human proteins. This serves as additional confirmation of the in vitro inhibitory potential of these compounds, and it was considered important because mouse models are likely to be used as the first in vivo tests. […] The experimental setup used was similar to the one described above, but using mCD40 (recombinant mouse CD40/TNFRSF5/Fc Chimera, soluble, R&D Systems) and (FLAG-tagged) mCD154 (recombinant mouse CD40L, soluble, Alexis Biochemicals). This time, however, a higher concentration of CD154 ligand had to be employed to obtain adequate signals, and after a number of calibration tests, mCD40 coating at 0.3125 μg/mL with mCD154 (mCD40L) at 1.1212 μg/mL range was selected to be used to screen the inhibiting activity of various compounds.
The experiments confirmed that the murine anti-CD154 monoclonal antibody (Taconic, MR1) was active in this system at the expected concentration (˜1 nM range), the human antibody was not, and vice versa, the human mAb was active in the human system, but not in the mouse system. The mouse system provided a similar range of activity with some (up to approximately five-fold) changes in activities compared to that seen in the human system (FIG. 2) (Table 1).

[2] = cell-free binding, read-out: Human CD40/CD154 IC50
[3] = cell-free binding, read-out: Human CD40/CD154 IC50 (ug/mL) (converted)
[4] = log of IC50, cell-free binding, read-out: Human CD40/CD154 log IC50 (converted)

Compound	IC50 (human TNF-R1/TNFα)	Human TNFR1/TNFα log IC50 (human TNF-R1/TNFα)	Human CD40/CD154 IC50 (human CD40/CD154; cell-free binding)	IC50 (human CD40/CD154; [2])	Human CD40/CD154 log IC50 (human CD40/CD154; log of IC50, cell-free binding)	IC50 ([1]; cell-free binding, read-out: Mouse CD40/CD154 IC50)	Mouse CD40/CD154 log IC50 ([1]; log of IC50, cell-free binding)	IC50 (human CD40/CD154; [3])	IC50 (human CD40/CD154; [4])
Nc1c(N=Nc2cccc([N+](=O)[O-])c2)c(S(=O)(=O)[O-])cc2cc(S(=O)(=O)[O-])c(N=Nc3ccccc3)c(O)c12.[Na+].[Na+] [Acid blue 29, acid blue 29]	467 µM	−3.33	18.6 µg/mL	30.2 µM	−4.52				
O=S(=O)([O-])c1cccc(N=Nc2ccc(N=Nc3ccc(Nc4ccccc4)c4c(S(=O)(=O)[O-])cccc34)c3ccccc23)c1.[Na+].[Na+] [Acid blue 113, acid blue 113]			0.8 µg/mL	1.1 µM	−5.95				
Cc1ccc(S(=O)(=O)Oc2ccc(N=Nc3ccc(-c4ccc(N=Nc5c(O)ccc6cc(S(=O)(=O)[O-])cc(S(=O)(=O)[O-])c56)c(C)c4)cc3C)cc2)cc1.[Na+].[Na+] [Acid red 114, C.I. acid red 114]	14.2 µM	−4.85	2.4 µg/mL	2.8 µM	−5.55				
O=S(=O)([O-])c1cc(S(=O)(=O)[O-])c2c(N=Nc3ccc(N=Nc4ccccc4)cc3)c(O)ccc2c1.[Na+].[Na+] [Brilliant crocein (crocein scarlet MOO), Brilliant crocein, reference compound]			92.8 µg/mL	141 µM	−3.85	282 µM	−3.55		
Nc1ccc(N=Nc2ccc(-c3ccc(N=Nc4c(S(=O)(=O)[O-])cc5cc(S(=O)(=O)[O-])c(N=Nc6ccccc6)c(O)c5c4N)cc3)cc2)c(N)c1.[Na+].[Na+] [Chlorazol black (direct black 38), direct black 38]			0.9 µg/mL	1.1 µM	−5.95				
Nc1c(/N=N/c2ccc(-c3ccc(/N=N/c4cc(S(=O)(=O)O)c5ccccc5c4N)cc3)cc2)cc(S(=O)(=O)O)c2ccccc12 [Congo red]	34.9 µM			5.7 µM				6.13 µM	
COc1cc(-c2ccc(N=Nc3c(S(=O)(=O)[O-])cc4cc(S(=O)(=O)[O-])cc(N)c4c3O)c(OC)c2)ccc1N=Nc1c(S(=O)(=O)[O-])cc2cc(S(=O)(=O)[O-])cc(N)c2c1O.[Na+].[Na+].[Na+].[Na+] [Direct blue 15, direct blue 15]			1.4 µg/mL	1.4 µM	−5.86				
Nc1ccc2c(O)c(N=Nc3ccc(N=Nc4ccc(N=Nc5cc(S(=O)(=O)[O-])c6cccc(S(=O)(=O)[O-])c6c5)c5ccccc45)c4ccc(S(=O)(=O)[O-])cc34)c(S(=O)(=O)[O-])cc2c1.[Na+].[Na+].[Na+].[Na+] [Direct blue 71, direct blue 71]	98.5 µM	−4.01	2.2 µg/mL	2.1 µM	−5.68				
CCOc1ccc(N=Nc2ccc(-c3ccc(N=Nc4c(O)ccc5cc(S(=O)(=O)[O-])cc(S(=O)(=O)[O-])c45)cc3)cc2)cc1.[Na+].[Na+] [Direct red 37, direct red 37]			8.8 µg/mL	13 µM	−4.88				
COc1ccccc1NC(=O)C(N=Nc1ccc(-c2nc3ccc(C)c(S(=O)(=O)[O-])c3s2)cc1S(=O)(=O)[O-])C(C)=O.[Na+].[Na+] (stereo not shown) [Direct yellow 27, direct yellow 27]	42.4 µM	−4.37	1.3 µg/mL	1.9 µM	−5.72				
Cc1cc(-c2ccc(/N=N/c3ccc4c(S(=O)(=O)O)cc(S(=O)(=O)O)c(N)c4c3O)c(C)c2)ccc1/N=N/c1ccc2c(S(=O)(=O)O)cc(S(=O)(=O)O)c(N)c2c1O [Evans blue]								1.6 µM	1.45 µM
Nc1cc(N)c(N=Nc2cccc3c(S(=O)(=O)O)cccc23)cc1N=Nc1cc([N+](=O)[O-])ccc1O.[Na] [Mordant brown 1, mordant brown 1]	86 µM	−4.07	0.3 µg/mL	0.7 µM	−6.18				
Cc1cc(-c2ccc(/N=N/c3c(S(=O)(=O)O)cc4cc(S(=O)(=O)O)cc(N)c4c3O)c(C)c2)ccc1/N=N/c1c(S(=O)(=O)O)cc2cc(S(=O)(=O)O)cc(N)c2c1O [Trypan blue, trypan blue]								4.24 µM	3.8 µM
acid red 188			7.0 µg/mL	12.8 µM	−4.89				
direct blue 120			1.4 µg/mL	1.6 µM	−5.80				
direct red 53			16.2 µg/mL	24.4 µM	−4.61				
